Literature values, collected in PubChem BioAssay AID1259409 (Chemical Carcinogenesis Research Information System (CCRIS), 2018).

Test system: rodent chemically induced tumor inhibition, incidence and multiplicity
Test: CCRIS tumor inhibitor studies
Conditions: for tumour outcome (control, treated, inhibition, significance): Species: MOUSE

CC(C)c1cc(C(=O)O)c([O-])c(C(C)C)c1.CC(C)c1cc(C(=O)O)c([O-])c(C(C)C)c1.[Cu+2]
tumour outcome (control, treated, inhibition, significance) (Carcinogen: 7,12-DIMETHYLBENZ[A]ANTHRACENE, 57-97-6, Dose [Inhibitor]: 500 NMOL IN 0.2 ML ACETONE APPLIED ONCE TO DORSAL SKIN 15 MIN PRIOR TO CARCINOGEN DOSE (STUDY DURATION: 20 WK), Route [Inhibitor]: DERMAL, Strain/Sex: SENCAR/FEMALE, Target Tissue: Type of Lesion: SKIN: PAPILLOMA, Dose [Carcinogen]: 10 NMOL IN 0.2 ML ACETONE ONCE): 100%, 100%, 0%, not significant | tumour outcome (control, treated, inhibition, significance) (Carcinogen: 7,12-DIMETHYLBENZ[A]ANTHRACENE, 57-97-6, Dose [Inhibitor]: 1000 NMOL IN 0.2 ML ACETONE APPLIED ONCE TO DORSAL SKIN 15 MIN PRIOR TO CARCINOGEN DOSE (STUDY DURATION: 20 WK), Route [Inhibitor]: DERMAL, Strain/Sex: SENCAR/FEMALE, Target Tissue: Type of Lesion: SKIN: PAPILLOMA, Dose [Carcinogen]: 10 NMOL IN 0.2 ML ACETONE ONCE): 100%, 100%, 0%, not significant | tumour outcome (control, treated, inhibition, significance) (Carcinogen: 7,12-DIMETHYLBENZ[A]ANTHRACENE, 57-97-6, Dose [Inhibitor]: 2000 NMOL IN 0.2 ML ACETONE APPLIED ONCE TO DORSAL SKIN 15 MIN PRIOR TO CARCINOGEN DOSE (STUDY DURATION: 20 WK), Route [Inhibitor]: DERMAL, Strain/Sex: SENCAR/FEMALE, Target Tissue: Type of Lesion: SKIN: PAPILLOMA, Dose [Carcinogen]: 10 NMOL IN 0.2 ML ACETONE ONCE): 100%, 100%, 0%, not significant | tumour outcome (control, treated, inhibition, significance) (Carcinogen: BENZO[A]PYRENE, 50-32-8, Dose [Inhibitor]: 100 NMOL IN 0.2 ML ACETONE APPLIED ONCE TO DORSAL SKIN 15 MIN PRIOR TO CARCINOGEN DOSE (STUDY DURATION: 20 WK), Route [Inhibitor]: DERMAL, Strain/Sex: SENCAR/FEMALE, Target Tissue: Type of Lesion: SKIN: PAPILLOMA, Dose [Carcinogen]: 200 NMOL IN 0.2 ML ACETONE ONCE): 97%, 93%, 4%, not calculated | tumour outcome (control, treated, inhibition, significance) (Carcinogen: BENZO[A]PYRENE, 50-32-8, Dose [Inhibitor]: 500 NMOL IN 0.2 ML ACETONE APPLIED ONCE TO DORSAL SKIN 15 MIN PRIOR TO CARCINOGEN DOSE (STUDY DURATION: 20 WK), Route [Inhibitor]: DERMAL, Strain/Sex: SENCAR/FEMALE, Target Tissue: Type of Lesion: SKIN: PAPILLOMA, Dose [Carcinogen]: 200 NMOL IN 0.2 ML ACETONE ONCE): 97%, 93%, 4%, not calculated | tumour outcome (control, treated, inhibition, significance) (Carcinogen: BENZO[A]PYRENE, 50-32-8, Dose [Inhibitor]: 1000 NMOL IN 0.2 ML ACETONE APPLIED ONCE TO DORSAL SKIN 15 MIN PRIOR TO CARCINOGEN DOSE (STUDY DURATION: 20 WK), Route [Inhibitor]: DERMAL, Strain/Sex: SENCAR/FEMALE, Target Tissue: Type of Lesion: SKIN: PAPILLOMA, Dose [Carcinogen]: 200 NMOL IN 0.2 ML ACETONE ONCE): 97%, 100%, -3%, not calculated | tumour outcome (control, treated, inhibition, significance) (Carcinogen: BENZO[A]PYRENE, 50-32-8, Dose [Inhibitor]: 2000 NMOL IN 0.2 ML ACETONE APPLIED ONCE TO DORSAL SKIN 15 MIN PRIOR TO CARCINOGEN DOSE (STUDY DURATION: 20 WK), Route [Inhibitor]: DERMAL, Strain/Sex: SENCAR/FEMALE, Target Tissue: Type of Lesion: SKIN: PAPILLOMA, Dose [Carcinogen]: 200 NMOL IN 0.2 ML ACETONE ONCE): 97%, 90%, 7%, not calculated | tumour outcome (control, treated, inhibition, significance) (Carcinogen: BENZO[A]PYRENE, 50-32-8, Dose [Inhibitor]: 4000 NMOL IN 0.2 ML ACETONE APPLIED ONCE TO DORSAL SKIN 15 MIN PRIOR TO CARCINOGEN DOSE (STUDY DURATION: 20 WK), Route [Inhibitor]: DERMAL, Strain/Sex: SENCAR/FEMALE, Target Tissue: Type of Lesion: SKIN: PAPILLOMA, Dose [Carcinogen]: 200 NMOL IN 0.2 ML ACETONE ONCE): 97%, 96%, 0.3%, not calculated

Cc1c(O)cc2c(c1C)OC(C)(CCCC(C)CCCC(C)CCCC(C)C)CC2 (centres undefined)
tumour outcome (control, treated, inhibition, significance) (Carcinogen: N-NITROSODIETHYLAMINE, 55-18-5, Dose [Inhibitor]: 0, 5% IN BASAL DIET BEGINNING AT 8 WK OF AGE AND CONTINUING FOR 22 MO (STUDY DURATION: 22 MO), Route [Inhibitor]: ORAL, Strain/Sex: 6HF1/MALE, Target Tissue: Type of Lesion: ESOPHAGUS: SQUAMOUS CELL CARCINOMA, Dose [Carcinogen]: 100 MG/L IN DRINKING WATER DURING 11-13 WK OF AGE, Promoter: NONE USED): 6/50 (12%), 0/50 (0%), 100%, not calculated | tumour outcome (control, treated, inhibition, significance) (Carcinogen: N-NITROSODIETHYLAMINE, 55-18-5, Dose [Inhibitor]: 0, 5% IN BASAL DIET BEGINNING AT 8 WK OF AGE AND CONTINUING FOR 22 MO (STUDY DURATION: 22 MO), Route [Inhibitor]: ORAL, Strain/Sex: 6HF1/MALE, Target Tissue: Type of Lesion: FORESTOMACH: SQUAMOUS CELL CARCINOMA, Dose [Carcinogen]: 100 MG/L IN DRINKING WATER DURING 11-13 WK OF AGE, Promoter: NONE USED): 82%, 72%, 12%, not calculated | tumour outcome (control, treated, inhibition, significance) (Carcinogen: N-NITROSODIETHYLAMINE, 55-18-5, Dose [Inhibitor]: 0, 5% IN BASAL DIET BEGINNING AT 8 WK OF AGE AND CONTINUING FOR 22 MO (STUDY DURATION: 22 MO), Route [Inhibitor]: ORAL, Strain/Sex: 6HF1/MALE, Target Tissue: Type of Lesion: LIVER: TUMOR, Dose [Carcinogen]: 100 MG/L IN DRINKING WATER DURING 11-13 WK OF AGE, Promoter: NONE USED): 39/50 (78%), 40/50 (80%), -3%, not calculated | tumour outcome (control, treated, inhibition, significance) (Carcinogen: N-NITROSODIETHYLAMINE, 55-18-5, Dose [Inhibitor]: 0, 5% IN BASAL DIET BEGINNING AT 8 WK OF AGE AND CONTINUING FOR 22 MO (STUDY DURATION: 22 MO), Route [Inhibitor]: ORAL, Strain/Sex: 6HF1/MALE, Target Tissue: Type of Lesion: LUNG: TUMOR, Dose [Carcinogen]: 100 MG/L IN DRINKING WATER DURING 11-13 WK OF AGE, Promoter: NONE USED): 42/50 (84%), 24/50 (48%), 43%, p<0.05

CC(C)(Sc1cc(C(C)(C)C)c(O)c(C(C)(C)C)c1)Sc1cc(C(C)(C)C)c(O)c(C(C)(C)C)c1
tumour outcome (control, treated, inhibition, significance) (Carcinogen: BENZO[A]PYRENE, 50-32-8, Dose [Inhibitor]: 0, 0.06% IN DIET FOR DURATION OF STUDY BEGINNING 2 WK PRIOR TO CARCINOGEN DOSE (STUDY DURATION: 25 WK), Route [Inhibitor]: ORAL, Strain/Sex: STRAIN-A/FEMALE, Target Tissue: Type of Lesion: FORESTOMACH: TUMOR, Dose [Carcinogen]: 1 MG IN 0.2 ML OLIVE OIL 2/WK FOR 4 WK, Promoter: NONE USED): 15/15 (100%), 13/13 (100%), 0%, not significant | tumour outcome (control, treated, inhibition, significance) (Carcinogen: BENZO[A]PYRENE, 50-32-8, Dose [Inhibitor]: 0, 0.06% IN DIET FOR DURATION OF STUDY BEGINNING 2 WK PRIOR TO CARCINOGEN DOSE (STUDY DURATION: 25 WK), Route [Inhibitor]: ORAL, Strain/Sex: STRAIN-A/FEMALE, Target Tissue: Type of Lesion: LUNG: ADENOMA, Dose [Carcinogen]: 1 MG IN 0.2 ML OLIVE OIL 2/WK FOR 4 WK, Promoter: NONE USED): 15/15 (100%), 13/13 (100%), 0%, not significant | tumour outcome (control, treated, inhibition, significance) (Carcinogen: BENZO[A]PYRENE, 50-32-8, Dose [Inhibitor]: 0, 1% IN DIET FOR DURATION OF STUDY BEGINNING 2 WK PRIOR TO CARCINOGEN DOSE (STUDY DURATION: 25 WK), Route [Inhibitor]: ORAL, Strain/Sex: STRAIN-A/FEMALE, Target Tissue: Type of Lesion: FORESTOMACH: TUMOR, Dose [Carcinogen]: 1 MG IN 0.2 ML OLIVE OIL 2/WK FOR 4 WK, Promoter: NONE USED): 15/15 (100%), 15/15 (100%), 0%, not significant | tumour outcome (control, treated, inhibition, significance) (Carcinogen: BENZO[A]PYRENE, 50-32-8, Dose [Inhibitor]: 0, 1% IN DIET FOR DURATION OF STUDY BEGINNING 2 WK PRIOR TO CARCINOGEN DOSE (STUDY DURATION: 25 WK), Route [Inhibitor]: ORAL, Strain/Sex: STRAIN-A/FEMALE, Target Tissue: Type of Lesion: LUNG: ADENOMA, Dose [Carcinogen]: 1 MG IN 0.2 ML OLIVE OIL 2/WK FOR 4 WK, Promoter: NONE USED): 15/15 (100%), 15/15 (100%), 0%, not significant | outcome (Carcinogen: N,N-diethylnitrosamine, 55-18-5, Dose [Inhibitor]: 1% in diet through study, dose and study duration 24 wk, Route [Inhibitor]: Oral, Species: Mouse, Strain/Sex: ddy/Male, Target Tissue: Type of Lesion: Kidney, Dose [Carcinogen]: 100 mg/kg bw, Promoter: Ferric nitrilotriacetate, 16448-54-7): 14/20 (70%), 4/20 (20%)

CCCc1cc(OC)c2c(c1)OCO2
tumour outcome (control, treated, inhibition, significance) (Carcinogen: BENZO[A]PYRENE, 50-32-8, Dose [Inhibitor]: 0, 10 MG SUSPENDED IN 0.3 ML COTTONSEED OIL 3/WK FOR 4 WK ON DAYS OTHER THAN THE CARCINOGEN TREATMENT, 3 ADDITIONAL DOSE, Route [Inhibitor]: GAVAGE, Strain/Sex: STRAIN-A/FEMALE, Target Tissue: Type of Lesion: FORESTOMACH: TUMOR, Dose [Carcinogen]: 1 MG IN 0.3 ML COTTONSEED OIL 2/WK FOR 4 WK, Promoter: NONE USED): 12/17 (71%), 12/19 (63%), 11%, not significant | tumour outcome (control, treated, inhibition, significance) (Carcinogen: BENZO[A]PYRENE, 50-32-8, Dose [Inhibitor]: 0, 10 MG SUSPENDED IN 0.3 ML COTTONSEED OIL 3/WK FOR 4 WK ON DAYS OTHER THAN THE CARCINOGEN TREATMENT, 3 ADDITIONAL DOSE, Route [Inhibitor]: GAVAGE, Strain/Sex: STRAIN-A/FEMALE, Target Tissue: Type of Lesion: LUNG: TUMOR, Dose [Carcinogen]: 1 MG IN 0.3 ML COTTONSEED OIL 2/WK FOR 4 WK, Promoter: NONE USED): 17/17 (100%), 19/19 (100%), 0%, not significant
